Experiment [1] has as its system bone marrow mesenchymal stem cells. In words: β-gal staining and quantification in BMSCs. Type of experiment: cell-based, human. To be noted: FIG. 4B, C. The procedure:
(§1) Prior to the start of the experiment, the GENMED staining solution (Reagent E) in the kit was taken out of the refrigerator at −20° C., and thawed in an ice bath. Then 9.5 mL of GENMED dilution (Reagent D) was added into a 15 ml conical centrifuge tube, added with 500 μL of GENMED staining solution (Reagent E), mixed well, and then preheated in a 37° C. thermostatic sink. The obtained mixture was labeled as GENMED staining working solution.

Experiment [2] shares this test system. The experiment in a line: ALP activity of BMSCs after osteogenic induction. Type of experiment: cell-based, human. The conditions noted are these: 3 days of induction in osteogenic culture medium, FIG. 4D. The procedure:
(§2) • (1) Osteogenic culture medium was purchased from Invitrogen, USA. • (2) Quantification of alkaline phosphatase (ALP) activity • 1) After 3 days of osteogenic induction, the culture medium was discarded, and the cells were washed with PBS twice. • 2) The cells were added with 500 μL of lysis buffer, and incubated at 37° C. for 15 minutes. • 3) The cells were scraped, transferred into a 1.5 mL EP tube, and centrifuged at 14000 rpm at 4° C. for 10 minutes. The supernatant was transferred into a new EP tube to measure the protein concentration, and the procedure was the same as that in Western blot. • 4) The capsule from the alkaline phosphatase kit (Stock substrate Sol.) was dissolved with 5 mL of distilled water under vigorous shaking, and mixed well. • 5) 50 μL of ALP buffer was added to 50 μL of Stock substrate Sol to obtain a mixture. 100 μL of the mixture was added to each well in a 96-well plate, then added with 10 μL of sample, and mixed well. A blank well without sample added was set for zero adjustment. • 6) The plate was incubated at 37° C. for 15 minutes, and the OD value was measured at 405 nm.
(§3) Result of ALP activity was calculated according to Y/incubation time/protein concentration. • (3) Alizarin red staining • 1) After two weeks of osteogenic induction, the culture medium was discarded. The cells were washed three times with PBS pre-cooled at 4° C., and fixed with 70% ethanol at 4° C. for 1 hour. • 2) The cells were washed 2 times with double distilled water, and stained with 40 mM alizarin red solution (pH 4.2) at room temperature for 10 minutes. The staining was observed by naked eyes. • 3) The cells were washed 3 times with double-distilled water. • (4) Determination of Ca^2+ concentration

The subject of experiment [3] is senescent bone marrow mesenchymal stem cells. In words: β-gal staining in senescent BMSCs of aged mice. Type of experiment: cell-based, C57BL/6 mice. The conditions noted are these: FIG. 5A. As to the method: as §1
Experiment [4] concerns stem cells from apical papilla. In words: ALP activity of SCAPs after odontogenic induction. Type of experiment: cell-based, human. To be noted: SCAPs treated with polypeptide, 3 days of odontogenic induction, FIG. 8E. The procedure:
as §2, §3

The target in experiment [5] is KDM6B/WDR5 protein complex (Homo sapiens, UniProt P61964). In words: Co-IP of KDM6B/WDR5 complex in bone marrow mesenchymal stem cells. Further details: endogenous in cells; host or cells: bone marrow mesenchymal stem cells. To be noted: FIG. 3C. Type of experiment: cell-based. As to the method: Protein was extracted from cells of knockout group and overexpression group using IP lysate. The knockout group cells SCAPs-Scramsh and SCAPs-KDM6Bsh, SCAPs-Scramsh and SCAPs-WDR5sh, BMSCs-Scramsh and BMSCs-WDR5sh were added with KDM6B antibody, WDR5 antibody, and IgG antibody, respectively, and then rotated on a shaker at 4° C. overnight. On the next day, the cells were added with Protein A/G beads and rotated on a rotary shaker at 4° C. for 2 hours. A complex of protein-antibody-agarose bead was formed, and the formation of a protein complex of KDM6B and WDR5WB was detected by WB. The overexpression group cells SCAPs-Vector, SCAPs-HA-KDM6B, SCAPs-HA-KDM6B-mut102, and SCAPs-HA-KDM6B-mut114 were added with ProteinA/G beads with HA antibody, and cells SCAPs Vector and SCAPs-Myc-WDR5 were added with ProteinA/G beads with Myc antibody. All cells were incubated overnight to form a complex of protein-antibody-agarose bead. The formation of a protein complex of KDM6B and WDR5 was detected by WB method. • (2) Grouping: Input group (loading amount of 25 μg); antibody group (loading amount of 800 μg, 2 μg of antibody); IgG group (loading amount of 800 μg, 2 μg of antibody). Samples were diluted with lysate. • (3) Preparation of protein A/G beads
The protein A/G beads were washed 4 times with PBS, and centrifuged at 2000 g for 2 minutes. The supernatant was carefully collected, and added with PBS to achieve a content of protein A/G beads of 50%. 30 μL of protein A/G beads was added to each tube, and rotated at 4 degrees overnight. • (4) The samples were centrifuged at 5000 rpm for 30 s at 4° C., and washed 4-5 times with PBS by inverted up and down. Then the samples were centrifuged, and the supernatant was discarded. The samples were added with 30 μL of 2× loading buffer, and placed at 100° C. for 5 minutes. • (5) The supernatant was subjected to electrophoresis.

As for “FITC-(Acp)-ADLTISHCAADVVRAYGRKKRRQRRR [peptide 114]”, the “number of β-gal positive cells (quantification)” value in experiment [1] is “significant reduction”; in experiment [1] (listed as 114 peptide), 16.76. The ALP activity result was “promoted” in experiment [2], 4.621 in experiment [2] (listed as 114-peptide), “promoted” in experiment [4] and 0.7238 in experiment [4] (listed as 114 peptide). In addition, the “number of β-gal positive cells” value in experiment [3] is recorded as “significant reduction”. Besides, in experiment [5], the “opening/blocking of the binding of KDM6B/WDR5 protein complex (Co-IP)” value was “could effectively open the binding”.
In the case of “FITC-(Acp)-KEKSRRVLGNLDLQSYGRKKRRQRRR [peptide 102]”, the “number of β-gal positive cells (quantification)” value is on record as “significant reduction” in experiment [1] and 19.33 in experiment [1] (listed as 102 peptide). The ALP activity result in experiment [2] was “promoted”; in experiment [2] (listed as 102-peptide), 4.218; in experiment [4], “promoted”; in experiment [4] (listed as 102peptide) it was 0.3961. The “number of β-gal positive cells” value in experiment [3] is listed as “significant reduction”. In addition, the “opening/blocking of the binding of KDM6B/WDR5 protein complex (Co-IP)” value in experiment [5] was “could effectively open the binding”.

For the origin of these results see US20250041387A1, “POLYPEPTIDE SEQUENCE OF KDM6B AND APPLICATION OF KDM6B IN REGULATING AND CONTROLLING FUNCTION OF MESENCHYMAL STEM CELL” (BEIJING STOMATOLOGICAL HOSPITAL, CAPITAL MEDICAL UNIVERSITY, priority 2021, published 2025).
